Values joined by “and” are separate entries in the source; they are usually repeats but may differ in a detail not shown here. Identical values can stand only once.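 Five concentrations, 48 hours, 96-well plates. The concentration for 50% growth inhibition is given as GI50.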 Active and inactive are the calls of the source. No stated cut-off is given here; in the data, active = GI50 up to about 1.1 µM and inactive = higher.
What was measured:
Assay in all cases: NCI-60 cell line screen, 48 h
786-0 = system: 786-0
A498 = system: A498
A549 = system: A549
ACHN = system: ACHN
BT-549 = system: BT-549
CAKI-1 = system: CAKI-1
CCRF-CEM = system: CCRF-CEM
COLO 205 = system: COLO 205
DU-145 = system: DU-145
EKVX = system: EKVX
HCC 2998 = system: HCC 2998
HCT-116 = system: HCT-116
HCT-15 = system: HCT-15
HL-60 = system: HL-60
HOP-62 = system: HOP-62
HOP-92 = system: HOP-92
HT-29 = system: HT-29
Hs-578T = system: Hs-578T
IGROV-1 = system: IGROV-1
K562 = system: K562
KM12 = system: KM12
LOX IMVI = system: LOX IMVI
M14 = system: M14
MCF7 = system: MCF7
MDA-MB-231 = system: MDA-MB-231
MDA-MB-435 = system: MDA-MB-435
MOLT-4 = system: MOLT-4
Malme-3M = system: Malme-3M
NCI-H226 = system: NCI-H226
NCI-H23 = system: NCI-H23
NCI-H460 = system: NCI-H460
NCI-H522 = system: NCI-H522
NCI/ADR-RES = system: NCI/ADR-RES
OVCAR-3 = system: OVCAR-3
OVCAR-4 = system: OVCAR-4
OVCAR-5 = system: OVCAR-5
OVCAR-8 = system: OVCAR-8
PC-3 = system: PC-3
RPMI-8226 = system: RPMI-8226
RXF 393 = system: RXF 393
SF-268 = system: SF-268
SF-295 = system: SF-295
SF-539 = system: SF-539
SK-MEL-28 = system: SK-MEL-28
SK-MEL-2 = system: SK-MEL-2
SK-MEL-5 = system: SK-MEL-5
SK-OV-3 = system: SK-OV-3
SN12C = system: SN12C
SNB-19 = system: SNB-19
SNB-75 = system: SNB-75
SR = system: SR
SW-620 = system: SW-620
T47D = system: T47D
TK-10 = system: TK-10
U-251 = system: U-251
UACC-257 = system: UACC-257
UACC-62 = system: UACC-62
UO-31 = system: UO-31
MDA-N = system: MDA-N

Question: For Clc1ccc2c(SCC3CO3)c3ccccc3nc2c1 (configuration not stated), which GI50 (786-0) is on record?
Answer: 1.81 µM (inactive)

Question: And the GI50 (A498)?
Answer: 17.3 µM (inactive)

Question: And the GI50 (A549)?
Answer: 7.31 µM (inactive)

Question: What about the GI50 (ACHN) of the same compound?
Answer: 2.06 µM (inactive)

Question: What about the GI50 (BT-549) of the same compound?
Answer: 6.03 µM (inactive)

Question: What about the GI50 (CAKI-1) of the same compound?
Answer: 1.49 µM (inactive)

Question: And the GI50 (CCRF-CEM)?
Answer: 2.43 µM (inactive)

Question: And the GI50 (COLO 205)?
Answer: 3.02 µM (inactive)

Question: And the GI50 (DU-145)?
Answer: 1.57 µM (inactive)

Question: What about the GI50 (EKVX) of the same compound?
Answer: 4.9 µM (inactive)

Question: What about the GI50 (HCC 2998) of the same compound?
Answer: 4.81 µM (inactive)

Question: What about the GI50 (HCT-116) of the same compound?
Answer: 1.66 µM (inactive)

Question: And the GI50 (HCT-15)?
Answer: 1680 nM

Question: What about the GI50 (HL-60) of the same compound?
Answer: 1.04 µM (active)

Question: And the GI50 (HOP-62)?
Answer: 6.25 µM (inactive)

Question: And the GI50 (HOP-92)?
Answer: 2.12 µM (inactive)

Question: What about the GI50 (HT-29) of the same compound?
Answer: 1.64 µM (inactive)

Question: And the GI50 (Hs-578T)?
Answer: 2.72 µM (inactive)

Question: What about the GI50 (IGROV-1) of the same compound?
Answer: 1.33 µM (inactive)

Question: What about the GI50 (K562) of the same compound?
Answer: 1.87 µM (inactive)

Question: And the GI50 (KM12)?
Answer: 1.7 µM (inactive)

Question: And the GI50 (LOX IMVI)?
Answer: 2.25 µM (inactive)

Question: And the GI50 (M14)?
Answer: 1.72 µM (inactive)

Question: What about the GI50 (MCF7) of the same compound?
Answer: 1.47 µM (inactive)

Question: What about the GI50 (MDA-MB-231) of the same compound?
Answer: 2.33 µM (inactive)

Question: And the GI50 (MDA-MB-435)?
Answer: 3.15 µM (inactive)

Question: What about the GI50 (MOLT-4) of the same compound?
Answer: 1.85 µM (inactive)

Question: What about the GI50 (Malme-3M) of the same compound?
Answer: 2.04 µM (inactive)

Question: And the GI50 (NCI-H226)?
Answer: 22.9 µM (inactive)

Question: What about the GI50 (NCI-H23) of the same compound?
Answer: 3.54 µM (inactive)

Question: What about the GI50 (NCI-H460) of the same compound?
Answer: 4.27 µM (inactive)

Question: And the GI50 (NCI-H522)?
Answer: 2.08 µM (inactive)

Question: And the GI50 (NCI/ADR-RES)?
Answer: 2.43 µM (inactive)

Question: And the GI50 (OVCAR-3)?
Answer: 1.73 µM (inactive)

Question: And the GI50 (OVCAR-4)?
Answer: 3.87 µM (inactive)

Question: And the GI50 (OVCAR-5)?
Answer: 4.36 µM (inactive)

Question: What about the GI50 (OVCAR-8) of the same compound?
Answer: 2.19 µM (inactive)

Question: What about the GI50 (PC-3) of the same compound?
Answer: 2.65 µM (inactive)

Question: What about the GI50 (RPMI-8226) of the same compound?
Answer: 2.42 µM (inactive)

Question: And the GI50 (RXF 393)?
Answer: 2.66 µM (inactive)

Question: What about the GI50 (SF-268) of the same compound?
Answer: 3.18 µM (inactive)

Question: What about the GI50 (SF-295) of the same compound?
Answer: 16.5 µM (inactive)

Question: And the GI50 (SF-539)?
Answer: 2.13 µM (inactive)

Question: And the GI50 (SK-MEL-28)?
Answer: 2.88 µM (inactive)

Question: And the GI50 (SK-MEL-2)?
Answer: 2.7 µM (inactive)

Question: What about the GI50 (SK-MEL-5) of the same compound?
Answer: 4.84 µM (inactive)

Question: What about the GI50 (SK-OV-3) of the same compound?
Answer: 21.1 µM (inactive)

Question: What about the GI50 (SN12C) of the same compound?
Answer: 2.02 µM (inactive)

Question: What about the GI50 (SNB-19) of the same compound?
Answer: 5.43 µM (inactive)

Question: And the GI50 (SNB-75)?
Answer: 9.55 µM (inactive)

Question: What about the GI50 (SR) of the same compound?
Answer: 2.04 µM (inactive)

Question: And the GI50 (SW-620)?
Answer: 1.92 µM (inactive)

Question: What about the GI50 (T47D) of the same compound?
Answer: 1.66 µM (inactive)

Question: And the GI50 (TK-10)?
Answer: 1.74 µM (inactive)

Question: What about the GI50 (U-251) of the same compound?
Answer: 1.84 µM (inactive)

Question: What about the GI50 (UACC-257) of the same compound?
Answer: 2.49 µM (inactive)

Question: And the GI50 (UACC-62)?
Answer: 3.61 µM (inactive)

Question: And the GI50 (UO-31)?
Answer: 1.76 µM (inactive)

Question: What does the source list for CC(C)(C)OC(=O)C1C(=O)NC(=O)CC1CC(OCc1ccccc1)C(OCc1ccccc1)C(COCc1ccccc1)OCc1ccccc1 (configuration not stated)?
Answer: GI50 (A498): > 100 µM (inactive); GI50 (BT-549): 24.9 µM (inactive) and 14.6 µM (inactive); GI50 (DU-145): > 100 µM (inactive) and 54 µM (inactive); GI50 (HCC 2998): 30.8 µM (inactive) and 54.2 µM (inactive); GI50 (HOP-92): 17.5 µM (inactive) and 13 µM (inactive); GI50 (HT-29): 4.76 µM (inactive) and 8.24 µM (inactive); GI50 (Hs-578T): 12 µM (inactive) and 23.8 µM (inactive); GI50 (OVCAR-3): 24.8 µM (inactive) and 31.3 µM (inactive); GI50 (OVCAR-4): 31.6 µM (inactive) and 21.1 µM (inactive); GI50 (OVCAR-5): 35.6 µM (inactive) and 67.8 µM (inactive); GI50 (SF-295): 54.8 µM (inactive) and 28.3 µM (inactive); GI50 (SNB-75): 15 µM (inactive) and 11.1 µM (inactive); GI50 (T47D): 29.3 µM (inactive); GI50 (TK-10): > 100 µM (inactive)

Question: Which results are given for [O-][S+]1CC[S+]([O-])CC[S+]([O-])CC1 (configuration not stated)?
Answer: GI50 (786-0): > 100 µM (inactive); GI50 (A549): > 100 µM (inactive); GI50 (BT-549): > 100 µM (inactive); GI50 (CCRF-CEM): > 100 µM (inactive); GI50 (COLO 205): > 100 µM (inactive); GI50 (DU-145): > 100 µM (inactive); GI50 (EKVX): > 100 µM (inactive); GI50 (HCC 2998): > 100 µM (inactive); GI50 (HCT-116): > 100 µM (inactive); GI50 (HCT-15): > 100000 nM; GI50 (HL-60): > 100 µM (inactive); GI50 (HOP-62): > 100 µM (inactive); GI50 (HOP-92): > 100 µM (inactive); GI50 (HT-29): > 100 µM (inactive); GI50 (IGROV-1): > 100 µM (inactive); GI50 (K562): > 100 µM (inactive); GI50 (KM12): > 100 µM (inactive); GI50 (LOX IMVI): > 100 µM (inactive); GI50 (M14): > 100 µM (inactive); GI50 (MCF7): > 100 µM (inactive); GI50 (MDA-MB-231): > 100 µM (inactive); GI50 (MDA-MB-435): > 100 µM (inactive); GI50 (MDA-N): > 100 µM (inactive); GI50 (MOLT-4): > 100 µM (inactive); GI50 (NCI-H23): > 100 µM (inactive); GI50 (NCI-H460): > 100 µM (inactive); GI50 (NCI-H522): > 100 µM (inactive); GI50 (NCI/ADR-RES): > 100 µM (inactive); GI50 (OVCAR-3): > 100 µM (inactive); GI50 (OVCAR-4): > 100 µM (inactive); GI50 (OVCAR-5): > 100 µM (inactive); GI50 (OVCAR-8): > 100 µM (inactive); GI50 (PC-3): > 100 µM (inactive); GI50 (SF-268): > 100 µM (inactive); GI50 (SF-295): > 100 µM (inactive); GI50 (SF-539): > 100 µM (inactive); GI50 (SK-MEL-28): > 100 µM (inactive); GI50 (SK-MEL-5): > 100 µM (inactive); GI50 (SK-OV-3): > 100 µM (inactive); GI50 (SN12C): > 100 µM (inactive); GI50 (SNB-19): > 100 µM (inactive); GI50 (SNB-75): > 100 µM (inactive); GI50 (SR): > 100 µM (inactive); GI50 (SW-620): > 100 µM (inactive); GI50 (T47D): > 100 µM (inactive); GI50 (TK-10): > 100 µM (inactive); GI50 (U-251): > 100 µM (inactive); GI50 (UACC-257): > 100 µM (inactive); GI50 (UACC-62): > 100 µM (inactive); GI50 (UO-31): > 100 µM (inactive)
